The target in the experiment is Integrin alpha-V/beta-3 (Homo sapiens, UniProt P05106+P06756). Kind of experiment: Displacement of [125I]echistatin from AlphaV-beta-3 integrin receptor. Format: protein-complex assay. For orientation: Displacement assays read how much labelled ligand stays bound in the presence of the test substance.

For seven compounds, IC50 results are on record in ChEMBL document CHEMBL1146086, “Design, synthesis, and evaluation of near infrared fluorescent multimeric RGD peptides for targeting tumors” (J Med Chem, 2006).

Structures are written as SMILES. Numbered stars: 1 amine (or outer) side, 2 acyl side, 3 side chain; on linkers, the order of the positions; unused ones are H or OH. Bridge positions count the residues as written; N and C are the ends. Peptide text beside a SMILES is read from it. I, II: the chains in the order shown. * marks the point of attachment. X2 = CC1(C)C(/C=C/C=C/C=C/C=C2/N(CCC(=O)[*:1])c3ccc4ccccc4c3C2(C)C)=[N+](CCC(=O)[*:2])c2ccc3ccccc3c21; X1 = CC1(C)C(/C=C/C=C/C=C/C=C2/N(CCC(=O)[*:1])c3ccc4ccccc4c3C2(C)C)=[N+](CC(=O)[*:2])c2ccc3ccccc3c21; Cypate = CC1(C)C(/C=C/C=C/C=C/C=C2/N(CCC(=O)*)c3ccc4ccccc4c3C2(C)C)=[N+](CCC(=O)O)c2ccc3ccccc3c21; X3 = CC1(C)C(/C=C/C=C/C=C/C=C2/N(CCC(=O)O)c3ccc4ccccc4c3C2(C)C)=[N+](CC(=O)*)c2ccc3ccccc3c21

Sequence of Integrin alpha-V/beta-3 (P05106 27-788 limits assumed): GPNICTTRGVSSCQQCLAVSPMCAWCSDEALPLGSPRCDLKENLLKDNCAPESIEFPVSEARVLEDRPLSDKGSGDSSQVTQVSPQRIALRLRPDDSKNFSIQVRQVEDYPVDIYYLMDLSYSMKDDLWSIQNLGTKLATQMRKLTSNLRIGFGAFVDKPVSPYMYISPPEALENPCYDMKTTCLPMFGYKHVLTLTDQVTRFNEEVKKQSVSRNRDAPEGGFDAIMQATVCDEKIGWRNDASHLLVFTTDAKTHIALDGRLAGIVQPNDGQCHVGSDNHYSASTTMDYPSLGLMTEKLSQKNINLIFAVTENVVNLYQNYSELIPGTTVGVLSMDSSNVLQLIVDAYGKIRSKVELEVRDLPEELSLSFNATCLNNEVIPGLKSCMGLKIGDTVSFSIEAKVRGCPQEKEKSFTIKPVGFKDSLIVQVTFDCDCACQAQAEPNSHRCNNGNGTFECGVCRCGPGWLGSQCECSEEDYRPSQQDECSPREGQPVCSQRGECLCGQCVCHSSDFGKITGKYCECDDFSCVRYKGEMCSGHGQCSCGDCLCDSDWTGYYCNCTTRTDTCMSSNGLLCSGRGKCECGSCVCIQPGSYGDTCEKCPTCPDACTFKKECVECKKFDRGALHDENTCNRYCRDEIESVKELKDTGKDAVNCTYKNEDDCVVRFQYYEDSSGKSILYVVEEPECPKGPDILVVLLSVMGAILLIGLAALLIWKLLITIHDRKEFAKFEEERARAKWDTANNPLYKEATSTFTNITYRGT
Sequence of Integrin alpha-V/beta-3 (P06756 31-889 limits assumed): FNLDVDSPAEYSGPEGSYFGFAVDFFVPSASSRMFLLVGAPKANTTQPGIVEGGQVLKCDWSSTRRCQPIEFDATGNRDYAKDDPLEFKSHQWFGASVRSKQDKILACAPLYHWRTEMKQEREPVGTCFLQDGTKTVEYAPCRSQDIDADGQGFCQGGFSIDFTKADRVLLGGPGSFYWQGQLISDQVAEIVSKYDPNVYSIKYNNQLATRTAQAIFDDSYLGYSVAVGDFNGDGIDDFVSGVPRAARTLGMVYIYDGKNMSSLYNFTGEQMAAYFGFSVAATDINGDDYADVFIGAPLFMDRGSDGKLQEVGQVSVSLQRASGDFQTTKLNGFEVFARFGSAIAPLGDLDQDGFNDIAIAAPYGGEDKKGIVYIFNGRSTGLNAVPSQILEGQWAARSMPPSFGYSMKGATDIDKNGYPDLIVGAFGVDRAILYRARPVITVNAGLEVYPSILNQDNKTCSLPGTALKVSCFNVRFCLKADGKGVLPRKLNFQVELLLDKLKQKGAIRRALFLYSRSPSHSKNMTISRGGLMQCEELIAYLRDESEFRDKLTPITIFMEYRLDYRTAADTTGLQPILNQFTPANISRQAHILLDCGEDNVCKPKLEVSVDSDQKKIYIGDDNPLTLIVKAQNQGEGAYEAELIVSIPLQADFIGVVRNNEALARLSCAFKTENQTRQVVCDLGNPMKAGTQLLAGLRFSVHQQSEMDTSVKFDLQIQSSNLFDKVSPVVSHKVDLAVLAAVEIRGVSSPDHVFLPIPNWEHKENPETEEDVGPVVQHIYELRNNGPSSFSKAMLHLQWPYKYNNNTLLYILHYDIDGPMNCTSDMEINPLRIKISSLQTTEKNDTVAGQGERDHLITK
Sequence of Integrin alpha-V/beta-3 (P06756 891-1048 limits assumed): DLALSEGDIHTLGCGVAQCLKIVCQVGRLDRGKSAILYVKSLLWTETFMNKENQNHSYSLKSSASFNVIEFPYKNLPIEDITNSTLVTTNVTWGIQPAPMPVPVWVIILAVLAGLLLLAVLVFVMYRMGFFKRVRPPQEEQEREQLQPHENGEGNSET

Turning to `CC1(C)C(/C=C/C=C/C=C/C=C2/N(CCC(=O)NCCCC[C@@H]3NC(=O)[C@@H](Cc4ccccc4)NC(=O)[C@H](CC(=O)O)NC(=O)CNC(=O)[C@H](CCCNC(=N)N)NC3=O)c3ccc4ccccc4c3C2(C)C)=[N+](CCC(=O)O)c2ccc3ccccc3c21`, the IC50 (commonly the concentration at which inhibition is half-maximal) stood at 63.9 nM. The value for `CC1(C)C(/C=C/C=C/C=C/C=C2/N(CCC(=O)N[C@@H](CCCN=C(N)N)C(=O)NCC(=O)N[C@@H](CC(=O)O)C(=O)N[C@@H](CCCN=C(N)N)C(=O)NCC(=O)N[C@@H](CC(=O)O)C(N)=O)c3ccc4ccccc4c3C2(C)C)=[N+](CC(=O)N[C@@H](CCCN=C(N)N)C(=O)NCC(=O)N[C@@H](CC(=O)O)C(=O)N[C@@H](CCCN=C(N)N)C(=O)NCC(=O)N[C@@H](CC(=O)O)C(N)=O)c2ccc3ccccc3c21` was 104 nM; that for `CC1(C)C(/C=C/C=C/C=C/C=C2/N(CCC(=O)O)c3ccc4ccccc4c3C2(C)C)=[N+](CC(=O)N[C@@H](CCCN=C(N)N)C(=O)NCC(=O)N[C@@H](CC(=O)O)C(=O)N[C@@H](CCCN=C(N)N)C(=O)NCC(=O)N[C@@H](CC(=O)O)C(N)=O)c2ccc3ccccc3c21` was 730 nM. Regarding `CC1(C)C(/C=C/C=C/C=C/C=C2/N(CCC(=O)N[C@@H](CCCN=C(N)N)C(=O)NCC(=O)N[C@@H](CC(=O)O)C(=O)N[C@@H](CCCN=C(N)N)C(=O)NCC(=O)N[C@@H](CC(=O)O)C(=O)N[C@@H](CCCN=C(N)N)C(=O)NCC(=O)N[C@@H](CC(=O)O)C(=O)N[C@@H](CCCN=C(N)N)C(=O)NCC(=O)N[C@@H](CC(=O)O)C(N)=O)c3ccc4ccccc4c3C2(C)C)=[N+](CCC(=O)O)c2ccc3ccccc3c21` (Cypate-RGDRGDRGDRGD-NH2), the IC50 is 259 nM.

The compound `CC1(C)C(/C=C/C=C/C=C/C=C2/N(CCC(=O)N[C@@H](CCCN=C(N)N)C(=O)NCC(=O)N[C@@H](CC(=O)O)C(=O)N[C@@H](CCCN=C(N)N)C(=O)NCC(=O)N[C@@H](CC(=O)O)C(=O)N[C@@H](CCCN=C(N)N)C(=O)NCC(=O)N[C@@H](CC(=O)O)C(N)=O)c3ccc4ccccc4c3C2(C)C)=[N+](CC(=O)N[C@@H](CCCN=C(N)N)C(=O)NCC(=O)N[C@@H](CC(=O)O)C(=O)N[C@@H](CCCN=C(N)N)C(=O)NCC(=O)N[C@@H](CC(=O)O)C(=O)N[C@@H](CCCN=C(N)N)C(=O)NCC(=O)N[C@@H](CC(=O)O)C(N)=O)c2ccc3ccccc3c21` (I: RGDRGDRGD-NH2 / II: RGDRGDRGD-NH2; linker I:N-II:N via X1) came in with an IC50 of 132 nM. Consider `CC1(C)C(/C=C/C=C/C=C/C=C2/N(CCC(=O)N[C@@H](CCCN=C(N)N)C(=O)NCC(=O)N[C@@H](CC(=O)O)C(=O)N[C@@H](CCCN=C(N)N)C(=O)NCC(=O)N[C@@H](CC(=O)O)C(=O)N[C@@H](CCCN=C(N)N)C(=O)NCC(=O)N[C@@H](CC(=O)O)C(=O)N[C@@H](CCCN=C(N)N)C(=O)NCC(=O)N[C@@H](CC(=O)O)C(N)=O)c3ccc4ccccc4c3C2(C)C)=[N+](CCC(=O)N[C@@H](CCCN=C(N)N)C(=O)NCC(=O)N[C@@H](CC(=O)O)C(=O)N[C@@H](CCCN=C(N)N)C(=O)NCC(=O)N[C@@H](CC(=O)O)C(=O)N[C@@H](CCCN=C(N)N)C(=O)NCC(=O)N[C@@H](CC(=O)O)C(=O)N[C@@H](CCCN=C(N)N)C(=O)NCC(=O)N[C@@H](CC(=O)O)C(N)=O)c2ccc3ccccc3c21` (I: RGDRGDRGDRGD-NH2 / II: RGDRGDRGDRGD-NH2; linker I:N-II:N via X2), for which the IC50 is 79.6 nM.

`CC1(C)C(/C=C/C=C/C=C/C=C2/N(CCC(=O)O)c3ccc4ccccc4c3C2(C)C)=[N+](CC(=O)N[C@@H](CCCN=C(N)N)C(=O)NCC(=O)N[C@@H](CC(=O)O)C(=O)N[C@@H](CCCN=C(N)N)C(=O)NCC(=O)N[C@@H](CC(=O)O)C(=O)N[C@@H](CCCN=C(N)N)C(=O)NCC(=O)N[C@@H](CC(=O)O)C(N)=O)c2ccc3ccccc3c21` (X3-RGDRGDRGD-NH2) registered an IC50 of 481 nM.
